Experimental findings from patent EP0942911B1, “BENZOPYRANOPYRROLE AND BENZOPYRANOPYRIDINE ALPHA-1 ADRENERGIC COMPOUNDS” (Abbott Laboratories, priority 1996, dated 1998) are described below.

Counter-ions that a name gives are not always drawn.

The target in test [1] is T1, α-1A adrenoreceptor (rat submaxillary gland) (Rattus norvegicus, UniProt P43140).
T1 sequence (P43140 1-466): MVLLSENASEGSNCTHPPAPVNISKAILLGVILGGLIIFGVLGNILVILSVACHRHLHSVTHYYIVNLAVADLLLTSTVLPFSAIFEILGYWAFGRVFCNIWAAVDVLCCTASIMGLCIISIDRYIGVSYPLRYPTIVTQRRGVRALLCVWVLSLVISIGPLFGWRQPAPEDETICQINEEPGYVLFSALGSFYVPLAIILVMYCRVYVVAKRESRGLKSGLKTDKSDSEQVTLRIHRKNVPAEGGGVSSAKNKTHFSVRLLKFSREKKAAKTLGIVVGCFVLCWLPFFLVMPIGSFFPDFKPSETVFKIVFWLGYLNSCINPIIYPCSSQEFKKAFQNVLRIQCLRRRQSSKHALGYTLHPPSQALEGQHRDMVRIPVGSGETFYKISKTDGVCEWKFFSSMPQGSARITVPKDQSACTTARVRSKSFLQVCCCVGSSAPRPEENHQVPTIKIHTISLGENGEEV
Put plainly: biochemical. It counts as binding. The note with it: [3H]-prazosin radioligand; rat submaxillary gland membranes; read-out: Radioligand Binding (Ki, nM) 1A (Rat). The method, boiled down: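 Membranes were prepared from rat submaxillary glands as the α-1A adrenoreceptor source. Competition binding followed Greengrass and Bremner, with bound radioligand measured by scintillation counting.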

For test [2], the target named is T2, α-1A adrenoreceptor (Rattus norvegicus, UniProt P43140).
T2 sequence (P43140 1-466): T1 sequence (P43140 1-466)
Put plainly: cell-based. The note with it: phenylephrine-induced contraction, Schild plot; for Kb: read-out: In Vitro Characterization (pA2) Rat Vas (converted). The method, boiled down: (§1)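 Phenylephrine dose-response curves for contraction were repeated against increasing test-agent concentrations. pA2 was derived by Schild plot [[…] vs log molarity of test agent].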

For test [3], the target named is T3, α-1B adrenoreceptor (Rattus norvegicus, UniProt P15823).
T3 construct: from tissue; host or cells: rat spleen
T3 sequence (P15823 1-515): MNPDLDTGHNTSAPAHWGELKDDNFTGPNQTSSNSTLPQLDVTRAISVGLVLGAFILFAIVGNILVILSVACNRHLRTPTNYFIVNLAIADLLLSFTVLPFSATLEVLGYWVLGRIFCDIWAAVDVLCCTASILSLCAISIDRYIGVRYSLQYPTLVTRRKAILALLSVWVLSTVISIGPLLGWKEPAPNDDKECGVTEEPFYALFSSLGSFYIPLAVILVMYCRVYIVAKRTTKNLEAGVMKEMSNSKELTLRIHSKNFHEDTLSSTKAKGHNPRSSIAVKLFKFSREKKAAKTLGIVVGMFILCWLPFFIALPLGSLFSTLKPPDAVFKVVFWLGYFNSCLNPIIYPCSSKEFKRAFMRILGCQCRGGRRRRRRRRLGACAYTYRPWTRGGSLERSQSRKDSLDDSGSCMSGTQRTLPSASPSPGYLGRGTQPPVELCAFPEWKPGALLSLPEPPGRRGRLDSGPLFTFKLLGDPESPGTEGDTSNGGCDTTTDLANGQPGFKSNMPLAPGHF
As to the kind of experiment: cell-based. Particulars: phenylephrine-induced contraction, Schild plot; for Kb: read-out: In Vitro Characterization (pA2) Rat Spleen (converted). The method, boiled down: as §1

Test [4] has as its system α-1 Adrenoceptors. As to the kind of experiment: Functional antagonism in rat aorta (method not described). The test is classed as cell-based.
For test [5], the system named is α-1A adrenoreceptor. Put plainly: Functional antagonism: inhibition of PE-induced contraction of canine prostate strips (Schild plot). The note with it: phenylephrine-induced contraction. The test is classed as cell-based.

The term Ki denotes a dissociation constant, usually derived from enzyme kinetics or from competition with a known ligand.

With “3-[4-((3aR,9bR)-cis-9-Methoxy-1,2,3,3a,4,9b-hexahydro-[1]-benzopyrano[3,4-c]pyrrol-2-yl]butyl]-7-methoxy-pyrido[3',2':4,5]thieno[3,2-d]pyrimidine-2,4(1H,3H)-dione hydrochloride [Example 33]”, the Ki in test [1] amounted to 0.811 nM. Moreover, the “In Vitro Characterization (pA2) Rat Vas” value in test [2] is 9.02. The “In Vitro Characterization (pA2) Rat Spleen” value in test [3] is 7.83. For the same molecule, the “In Vitro Characterization (pA2) Rat Aorta” value in test [4] turned out to be 9.15.
Turning to `COc1cccc2c1[C@@H]1CN(CCCCn3c(=O)[nH]c4c(sc5ncc(-c6ccccc6)nc54)c3=O)C[C@H]1CO2` [Example 50, 3-[4-((3aS,9bR)-trans-9-Methoxy-1,2,3,3a,4,9b-hexahydro-[1]-benzopyrano[3,4-c]pyrrol-2-yl)butyl]-8-phenyl-pyrazino[2',3':4,5]thieno[3,2-d]pyrimidine-2,4(1H,3H)-dione hydrochloride], the Ki in test [1] was 1.93 nM. Further, the Kb is 0.0447 nM in test [2] and 316 nM in test [3]. For the same molecule, the “In Vitro Characterization (pA2) Dog Prostate” value in test [5] amounted to 8.45.
As to `COc1cccc2c1[C@@H]1CCN(CCCCn3c(=O)[nH]c4c(sc5ncc(Cl)nc54)c3=O)C[C@H]1CO2` [Example 97, 3-[4-((4aS,10bR)-trans-10-Methoxy-1,3,4,4a,5,10b-hexahydro-2H-[1]-benzopyrano[3,4-c]pyrido-3-yl)butyl]-8-chloro-pyrazino[2',3':4,5]thieno[3,2-d]pyrimidine-2,4(1H,3H)-dione dihydrochloride], in test [1], the Ki is 0.892 nM. Further, the Kb in test [2] was 1.55 nM; in test [3], 17.4 nM. Besides, the “In Vitro Characterization (pA2) Dog Prostate” value in test [5] is listed as 8.6.
